Test results taken from US8785381B2 (Emisphere Technologies, Inc., priority 2003, dated 2014).

Experiment: in vivo
Details: male, Sprague-Dawley, rat

SMILES: CC[C@H](C)[C@H](NC(=O)[C@H](Cc1ccccc1)NC(=O)[C@H](CCC(=O)O)NC(=O)[C@H](CCCCN)NC(=O)[C@H](C)NC(=O)[C@H](C)NC(=O)[C@H](CCC(N)=O)NC(=O)CNC(=O)[C@H](CCC(=O)O)NC(=O)[C@H](CC(C)C)NC(=O)[C@H](Cc1ccc(O)cc1)NC(=O)[C@H](CO)NC(=O)[C@H](CO)NC(=O)[C@@H](NC(=O)[C@H](CC(=O)O)NC(=O)[C@H](CO)NC(=O)[C@@H](NC(=O)[C@H](Cc1ccccc1)NC(=O)[C@@H](NC(=O)CNC(=O)[C@H](CCC(=O)O)NC(=O)[C@H](C)NC(=O)[C@@H](N)Cc1c[nH]cn1)[C@@H](C)O)[C@@H](C)O)C(C)C)C(=O)N[C@@H](C)C(=O)N[C@@H](Cc1c[nH]c2ccccc12)C(=O)N[C@@H](CC(C)C)C(=O)N[C@H](C(=O)N[C@@H](CCCCN)C(=O)NCC(=O)N[C@@H](CCCNC(=N)N)C(N)=O)C(C)C [GLP-1]
- Cmax (1 ng/kg): 0.0314 ng/mL
- Cmax (2 ng/kg): 0.0324 ng/mL
- Cmax (3 ng/kg): 0.0175 ng/mL
- Cmax (10 ng/kg): 0.0171 ng/mL
- Cmax (50 ng/kg): 0.153 ng/mL
- Cmax (0.5 mg/kg): 27.9 ng/mL
- Cmax (500 μg/kg): 0.106 ng/mL
